Experimental data from the NIST ThermoML archive (doi:10.1021/je400077c).
± gives the expanded uncertainty stated by the source.

Columns and labels:
[1] = refractive index (Na D-line) (dimensionless); wn = mass fraction of the nth substance listed; settings: 298.15 K, 101 kPa, Liquid, Standard Abbe refractometry
[2] = wn = mass fraction of the nth substance listed; settings: 298.15 K, 101 kPa, Liquid; for viscosity: Capillary tube (Ostwald / Ubbelohde) method; for speed of sound: Linear variable-path acoustic interferometer; for mass density: Vibrating tube method

[Ba+2].[Cl-].[Cl-] [barium chloride] + O
refractive index ([1]; w1 = 0.01): 1.333 ± 0.0008 | refractive index ([1]; w1 = 0.03): 1.3337 ± 0.0008 | refractive index ([1]; w1 = 0.05): 1.3345 ± 0.0008 | viscosity ([2]; w1 = 0.01): 0.909 ± 0.008 mPa·s | viscosity ([2]; w1 = 0.03): 0.915 ± 0.008 mPa·s | viscosity ([2]; w1 = 0.05): 0.921 ± 0.008 mPa·s | speed of sound ([2]; w1 = 0.01): 1516.7 ± 1.6 m/s | speed of sound ([2]; w1 = 0.03): 1521.4 ± 1.6 m/s | speed of sound ([2]; w1 = 0.05): 1525.3 ± 1.6 m/s | mass density ([2]; w1 = 0.01): 997.56 ± 0.04 kg/m3 | mass density ([2]; w1 = 0.03): 998.66 ± 0.04 kg/m3 | mass density ([2]; w1 = 0.05): 999.74 ± 0.05 kg/m3
